We go through three molecules from patent publication US9309314B2, “Polypeptides, nucleic acids and uses thereof” (AGENCY FOR SCIENCE, TECHNOLOGY AND RESEARCH (A*STAR), priority 2013, dated 2016).

Data set [1] has as its system hESCs. The data set can be described thus: Teratoma analysis. The class given is in vivo. The following applies: 10 million cells subcutaneously into SCID mice, day 60. Here is the method: Shef4TetR5-shELA cells were cultured in the presence (shELA) or absence (Control) of 20 ng/ml doxycycline for 3 passages (4 days/passage). Cells were harvested with Accutase (Stemcell Technologies) and resuspended in 1 part Matrigel to 2 parts mTSER1. 10 million cells in 200 μl were injected subcutaneously into the right hind paunches of SCID mice. shELA-injected mice were fed doxycycline (20 μg/ml) for 3 weeks following injection. Mice were sacrificed 60 days post-injection for tumor analysis.

For data set [2], the system named is hESCs. The data set can be described thus: Cell cycle studies (EDU staining, double thymidine block). The format is cell-based, human. The note with it: release from double thymidine block. Here is the method:
(§1) Recombinant ELA was added at 2.5 uM (or 10 μg/ml). Cell cycle studies were performed with Click-iT EDU staining kit (Invitrogen) and by performing a double thymidine block (2.5 mM thymidine; 16 hour block, 8 hour release, 16 hour block) followed by DAPI staining for DNA content at the indicated times following release.

Data set [3] relates to hESCs. The data set can be described thus: Apoptosis assay (Annexin V, activated Caspase 3). The class given is cell-based, human. Here is the method: Apoptosis assays were performed by plating control and Doxycycline-treated cells without Y-27632 onto matrigel for 6 hours, followed by harvesting and staining for Annexin V and activated Caspase 3.
Data set [4] deals with hESCs. The data set can be described thus: hESC growth assays (cell counts, colony size, xCELLigence real time cell index). The class given is cell-based, human. The note with it: for growth of knockdown hESCs (real-time cell index, xCELLigence): knockdown hESCs versus control hESCs. Here is the method: Feeder-free hESCs were cultured in clumps in mTSER1 (Stem Cell Technologies) on Matrigel (BD 354277).
hESCs were dissociated into single cells using Accutase (Stem Cell Technologies) and plated in the presence of 10 μM Y-27632 (ROCK inhibitor) for 12 hours (Watanabe et al., 2007).
For xCELLigence real time growth assays, 4000 cells were plated per well of an E-plate (ACEA Biosciences) with media changes every 48 hours.
as §1

The test system of data set [5] is pluripotency markers POU5F1, NANOG, SSEA3 and TRA-1-60. The data set can be described thus: Pluripotency markers in ELA-depleted hESCs (immunofluorescence, qPCR). The class given is cell-based, human. The following applies: prolonged ELA depletion in hESCs. Here is the method: […]. Neomycin-resistant cells were clonally expanded and assayed for doxycycline (20 ng/ml)-inducible knockdown. Data from one representative clone (Shef4TetR5 shELA) are shown in this paper. Shef4TetR5 shβ2M were derived as previously described (Zafarana et al., 2009). Unless otherwise stated, ELA knockdown was induced on Day −4 with 20 ng/ml doxycycline to generate shELA cells.
Polyclonal antibodies were raised against a human N-terminal epitope (nh2-[…]) (SEQ ID NO: 53), C-terminal epitope ([…]-cooh) (SEQ ID NO: 52) or whole mature ELABELA peptide with an intramolecular cysteine bond (nh2-[…]-cooh) (SEQ ID NO: 2) and peptide-affinity purified from rabbit and goat sera. […] For western blotting and immunofluoresence assays, ELA antibodies were used at 1 μg/mL. All other antibodies are commercially available: TGN-46 (Serotec # AHP500GT); SSEA-3 (Stem Cell Tech #60061AD); TRA-1-60 (BD #560173); SOX17 (R&D # AF1924); POU5F1 (SCBT #sc-5279).

Data set [6] has as its system hESCs. The data set can be described thus: Directed endoderm differentiation of hESCs (SOX17+ cell count). The class given is cell-based, human. The following applies: immunofluorescence. Here is the method:
Shef4TetR5-shELA and Shef4TetR5-shβ2M cells were cultured in the presence (shELA and shβ2M respectively) or absence (Control) of 20 ng/ml doxycycline for 1 passage (4 days) and dissociated with Accutase. […] 24 hours later, the media was changed to Endo differentiation media 1 [RPMI 1640 (Gibco), 1X B-27 supplement (Invitrogen), 50 ng/ml of Activin A (R&D Systems), 25 ng/ml BMP4 (R&D Systems) and 50 ng/ml bFGF (Invitrogen)] for 3 days. On day 3, the media was changed to Endo differentiation media 2 (RPMI 1640, B27, 50 ng/ml Activin) for 2 more days of culture. Rescue experiments were performed by adding 2.5 uM of ELA peptide to Shef4TetR5-shELA concurrently with doxycycline up to day 3, when the ELA peptide is no longer necessary as judged by downregulation of endogenous ELA.
On day 5, cells were fixed with 4% paraformaldehyde and stained with α SOX17 (AF1924, R&D Systems) and DAPI. For each well, three different randomly selected fields were imaged and the number of nuclei staining positive of SOX17 and DAPI were counted using a custom macro in ImageJ. A minimum of two wells per condition was used for each experiment, and a minimum of two independent experiments were performed to generate the results.

For data set [7], the system named is mesendodermal genes including GATA6, GATA4, FOXA2, EOMES and BRA. The data set can be described thus: qPCR of mesendodermal markers in hESCs. The format is cell-based, human. The procedure:
After the indicated time periods, embryoid bodies were harvested and RNA extracted using RNeasy kit […]. qPCR reactions were carried out using either Universal FastStart SYBR Green Mastermix (Roche) or using the Universal Probe Library system (Roche) in tandem with Taqman Fast Mastermix (Invitrogen). Primer sequences can be found in Table E1.

The test system of the next data set is undifferentiated hESCs. As to the kind of experiment: AP-ELA binding to undifferentiated hESCs after shRNA-mediated depletion of APLNR. The note with it: Day 0 undifferentiated hESCs.
A further data set relates to APLNR. As to the kind of experiment: APLNR knockdown (qPCR, flow cytometry). The note with it: FACs.
Data set [8] has as its system hESC-derived mesendoderm cells. The data set can be described thus: AP-ELA binding to Day 3 mesoendoderm cells after shRNA-mediated depletion of APLNR.
Protocol: (§2) HES3 human embryonic stem cells were transduced with 2TU of lentiviruses and selected with 2 ug/ml puromycin for 2 weeks on feeder free culture system.
Briefly, Shef4 and HES3 hESCs were dissociated with Accutase, and 0.14 million cells were plated into each well of a Matrigel-coated 24 well plate in the presence of 5 μM Y-27632 in mTSER1. The media was changed daily for 4 days with mTSER1 until the cells became 90% confluent. On Day 0, mTSER1 was then replaced with differentiation media [RPMI 1640, B-27 supplement with no insulin (Invitrogen)] with 9 μM of GSK3β inhibitor CHIR99201 (BioVision) for 24 hours. The cells were further grown for 2 days in RPMI+B27 without insulin until Day 3, when they were used for qPCR, flow cytometry and AP-binding assays.
Data set [9] deals with ELA processing and secretion. As to the kind of experiment: Xenopus secretion assay. The format is cell-based. The following applies: Xenopus laevis embryos injected with human ELA mRNA; increasing amounts. The procedure:
ZFNs were purchased from Sigma-Aldrich. 250 pg of mRNAs encoding the ZFN pair were injected into 1-cell stage embryos. ZFN binding sites within exon 1 are as follows: 5′_[…] 3′ (SEQ ID NO: 133) and 5′_[…]_3′ (SEQ ID NO: 134). Sequencing primers flanking the mutation sites are: forward 5′_[…]_3′ (SEQ ID NO: 135), reverse 5′[…]_3′ (SEQ ID NO: 136). For ela overexpression, 200 pg of SP6-transcribed zebrafish ela capped mRNA (Applied Biosystems) was injected into 1-cell stage zebrafish embryos. Translation blocking MOs used for aplnra and aplnrb have been described previously (Scott et al., 2007; Zeng et al., 2007) and were purchased from Gene tools (Oregon, USA). Embryos were injected at 1-cell stage with a combination of 1 ng of aplnra MO and 0.5 ng of aplnrb MO (Zeng et al., 2007). Information on probes used for q-PCR and WISH can be found in Tables E1 and E2. Zebrafish embryos at 100% epiboly were dechorionated and processed for western blotting as previously described (Link et al., 2006). For the Xenopus secretion assay, 16 ng of SP6-transcribed human ELA capped mRNA (Applied Biosystems) was injected into each cell of 4-cell stage embryos. At stage 8, embryos were dechorionated and dissociated in CMFM medium with 5 mM EDTA. […]

“Also recorded” adds a separate entry of the source.

Protocol for undifferentiated hESCs: as §2

With “shELA: doxycycline-inducible shRNA, sequence GTGATTCTCGTGCCTCAAC targeting the 3′UTR of ELA, in Shef4TetR5 hESCs”, in the data set on hESCs [1], the “teratoma / tumor formation” value is given as “did not form teratomas”. Besides, the cell cycle progression result in the data set with hESCs [2] was “not due to the activation of G1/S checkpoint or lengthened G0 residence; also recorded: do not display overt changes in cell cycle progression”. The apoptosis result with hESCs [3] (FACs, ANNEXIN V and activated CASPASE 3, single cells) is on record as “significantly higher rate; also recorded: rapid apoptosis”. For the same molecule, the “increase in the number of ANNEXIN V and activated CASPASE 3-positive cells” value with hESCs [3] (compared to control hESCs) was “approximately 40%”. Also, the “growth of hESCs by cell numbers” value in the data set on hESCs [4] (FIG. 3C, relative to untreated hESCs) is “reduced growth”. For the same molecule, the “growth of hESCs relative to untreated cells” value in the data set with hESCs [4] (hESCs pulsed with peptide, documented by cell counts, colony size and real-time cell indices) is listed as “reduced growth”. The colony size result with hESCs [4] (knockdown hESC colonies versus control) is reported as “less than half the size; also recorded: twice as small”. Moreover, the “growth of knockdown hESCs (real-time cell index, xCELLigence)” value with hESCs [4] was “markedly reduced growth rates; also recorded: significant growth impairment”. The “pluripotency markers and colony morphology” value in data set [5] is “downregulation of pluripotency markers; also recorded: lose expression of pluripotency markers; also recorded: gradually differentiate and lose pluripotency markers”. In the data set with hESCs [6], the “directed endoderm differentiation (SOX17 expression)” value is on record as “impaired endoderm differentiation; also recorded: markedly impaired”. Besides, the “expression of mesendodermal markers” value in data set [7] is listed as “reduced levels; also recorded: conversely downregulated”.

Regarding “shAPLNR: lentiviral shRNA hairpins against APLNR (constructs shAPLNR-1 and shAPLNR-2) (guide 1 ACACGTACCGGGACTATGA; guide 2 CCATCATGCTGACCTGTTA)”, the figures for the “levels of AP-ELA bound after APLNR depletion” value (with undifferentiated hESCs; in [8]) were “could not reduce binding of AP-ELA; also recorded: does not affect” and “sufficient to significantly diminish the levels of AP-ELA; also recorded: significantly reduced AP-ELA binding”, respectively. Moreover, the “cell surface APLNR levels” value in the data set on APLNR (Day 0 undifferentiated hESCs) is recorded as “No changes”; in the data set on APLNR (Day 3 mesoendoderm cells) it was “significantly reduced cell surface APLNR levels”. Also, in the data set with hESCs [4], the “growth of knockdown hESCs (real-time cell index, xCELLigence)” value was “not compromised; also recorded: do not show impaired growth”.

Regarding `C[C@H]1CCC/C=C/[C@@H]2C[C@H](O)C[C@H]2[C@H](O)/C=C/C(=O)O1` [Brefeldin A], the “ELA processing and secretion” value in data set [9] was “able to block ELA processing and secretion; also recorded: blocks ELA processing”.
